In the supplement of paper PMC4862054:

Assays:
Settings in all cases: incubation time: 72 h
[1] = test system: BT-474; test: normalised viability (% of control), CellTiter-Blue; higher = more viable cells (about 100 = DMSO control)
Description: (§1)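 DSRT, CellTiter-Blue viability, 72 h incubation. Signal is normalised to DMSO and benzethonium chloride controls. Value is the normalised response at dose 3.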

[2] = test system: BT-549; test: as above
Description: as §1

[3] = test system: CAL-120; test: as above
Description: as §1

[4] = test system: CAL-148; test: as above
Description: as §1

[5] = test system: CAL-51; test: as above
Description: as §1

[6] = test system: CAL-85-1; test: as above
Description: as §1

[7] = test system: DU-4475; test: as above
Description: as §1

[8] = test system: HCC1143; test: as above
Description: as §1

[9] = test system: HCC1599; test: as above
Description: as §1

[10] = test system: HCC1937; test: as above
Description: as §1

[11] = test system: HDQ-P1; test: as above
Description: as §1

[12] = test system: Hs578T; test: as above
Description: as §1

[13] = test system: MDA-MB-231; test: as above
Description: as §1

[14] = test system: MDA-MB-436; test: as above
Description: as §1

[15] = test system: MDA-MB-453; test: as above
Description: as §1

[16] = test system: MDA-MB-468; test: as above
Description: as §1

[17] = test system: MFM-223; test: as above
Description: as §1

[18] = test system: SK-BR-3; test: as above
Description: as §1

[19] = test system: CAL-120; test: drug sensitivity score (DSS), CellTiter-Blue viability (DSS (AUC-based score)); higher = stronger viability inhibition; extreme values may be limits of the assay
Description: (§2)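 DSRT with the CellTiter-Blue (resazurin reduction) viability readout, fluorescence 560/590 nm, 72 h incubation. Plates were normalised to DMSO and benzethonium chloride controls. DSS is computed from the area under the fitted dose-response curve (5 or 9 concentrations).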

[20] = test system: HCC1143; test: as above
Description: as §2

[21] = test system: HCC1599; test: as above
Description: as §2

[22] = test system: MDA-MB-436; test: as above
Description: as §2

[23] = test system: MDA-MB-453; test: as above
Description: as §2

[24] = test system: SK-BR-3; test: as above
Description: as §2

[25] = test system: DU-4475; test: drug sensitivity score (DSS), CellTiter-Glo (DSS (AUC-based score)); higher = stronger drug effect (viability inhibition or cytotoxicity); extreme values may be limits of the assay
Summary of the method: (§3)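 Compound was dispensed into 384-well plates at 5 concentrations in 10-fold steps spanning a 10,000-fold range chosen for each compound, and 20 µl of breast cancer cell suspension was added before 72 h of incubation. CellTox Green fluorescence was read at 485/520 nm, followed by CellTiter-Glo luminescence after 10 min at room temperature. Values on each plate were normalised to 0.1 % DMSO and a positive kill control. The drug sensitivity score came from the area under the fitted dose-response curve.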

[26] = test system: HDQ-P1; test: as above
Summary of the method: as §3

[27] = test system: MDA-MB-468; test: as above
Summary of the method: as §3

Nc1ccn([C@@H]2O[C@H](CO)[C@@H](O)C2(F)F)c(=O)n1 [Gemcitabine]
normalised viability ([1]; 10 nM): 101%
normalised viability ([2]; 10 nM): 84%
normalised viability ([3]; 10 nM): 67.3%
normalised viability ([4]; 1 nM): 106%
normalised viability ([5]; 1 nM): 105%
normalised viability ([6]; 1 nM): 93.2%
normalised viability ([7]; 1 nM): 116%
normalised viability ([8]; 10 nM): 70.7%
normalised viability ([9]; 10 nM): 88.8%
normalised viability ([10]; 10 nM): 63.7%
normalised viability ([11]; 1 nM): 125%
normalised viability ([12]; 10 nM): 82.1%
normalised viability ([13]; 10 nM): 77.9%
normalised viability ([14]; 10 nM): 94.3%
normalised viability ([15]; 1 nM): 111%
normalised viability ([16]; 10 nM): 68.9%
normalised viability ([17]; 10 nM): 92.6%
normalised viability ([18]; 10 nM): 77.4%
drug sensitivity score [19]: 14.7
drug sensitivity score [20]: 13.2
drug sensitivity score [21]: 7.74
drug sensitivity score [22]: 9.62
drug sensitivity score [23]: 11
drug sensitivity score [24]: 13.4
drug sensitivity score [25]: 4.13
drug sensitivity score [26]: 1.57
drug sensitivity score [27]: 19.7

Cn1cc(C2=C(c3cn(C4CCN(Cc5ccccn5)CC4)c4ccccc34)C(=O)NC2=O)c2ccccc21 [Enzastaurin]
normalised viability ([1]; 100 nM): 108%
normalised viability ([2]; 100 nM): 104%
normalised viability ([3]; 100 nM): 91.6%
normalised viability ([4]; 10 nM): 95.3%
normalised viability ([5]; 10 nM): 108%
normalised viability ([6]; 10 nM): 96.9%
normalised viability ([7]; 10 nM): 123%
normalised viability ([8]; 100 nM): 98%
normalised viability ([9]; 100 nM): 114%
normalised viability ([10]; 100 nM): 86.2%
normalised viability ([11]; 10 nM): 123%
normalised viability ([12]; 100 nM): 68.7%
normalised viability ([13]; 100 nM): 93.5%
normalised viability ([14]; 100 nM): 84.9%
normalised viability ([15]; 10 nM): 97.5%
normalised viability ([16]; 100 nM): 105%
normalised viability ([17]; 100 nM): 92.7%
normalised viability ([18]; 100 nM): 69.8%
drug sensitivity score [19]: 0
drug sensitivity score [20]: 5.14
drug sensitivity score [21]: 0
drug sensitivity score [22]: 9.96
drug sensitivity score [23]: 7.69
drug sensitivity score [24]: 10.1
drug sensitivity score [25]: 0
drug sensitivity score [26]: 0
drug sensitivity score [27]: 0

CC(C)(C)NC(=O)[C@H]1CC[C@H]2[C@@H]3CC[C@H]4NC(=O)C=C[C@]4(C)[C@H]3CC[C@]12C [Finasteride]
normalised viability ([1]; 100 nM): 125%
normalised viability ([2]; 100 nM): 107%
normalised viability ([3]; 100 nM): 108%
normalised viability ([4]; 10 nM): 93.2%
normalised viability ([5]; 10 nM): 109%
normalised viability ([6]; 10 nM): 97%
normalised viability ([7]; 10 nM): 107%
normalised viability ([8]; 100 nM): 107%
normalised viability ([9]; 100 nM): 106%
normalised viability ([10]; 100 nM): 91%
normalised viability ([11]; 10 nM): 106%
normalised viability ([12]; 100 nM): 105%
normalised viability ([13]; 100 nM): 94.2%
normalised viability ([14]; 100 nM): 110%
normalised viability ([15]; 10 nM): 103%
normalised viability ([16]; 100 nM): 103%
normalised viability ([17]; 100 nM): 95.1%
normalised viability ([18]; 100 nM): 104%
drug sensitivity score [19]: 0
drug sensitivity score [20]: 0
drug sensitivity score [21]: 0
drug sensitivity score [22]: 0
drug sensitivity score [23]: 1.81
drug sensitivity score [24]: 0
drug sensitivity score [25]: 0
drug sensitivity score [26]: 0
drug sensitivity score [27]: 0

C=CCn1c(=O)c2cnc(Nc3ccc(N4CCN(C)CC4)cc3)nc2n1-c1cccc(C(C)(C)O)n1 [MK1775]
normalised viability ([1]; 100 nM): 94.6%
normalised viability ([2]; 100 nM): 97.4%
normalised viability ([3]; 100 nM): 75.8%
normalised viability ([4]; 10 nM): 87.4%
normalised viability ([5]; 10 nM): 94.1%
normalised viability ([6]; 10 nM): 81.4%
normalised viability ([7]; 10 nM): 109%
normalised viability ([8]; 100 nM): 94.8%
normalised viability ([9]; 100 nM): 99.4%
normalised viability ([10]; 100 nM): 78.2%
normalised viability ([11]; 10 nM): 114%
normalised viability ([12]; 100 nM): 83.2%
normalised viability ([13]; 100 nM): 88.1%
normalised viability ([14]; 100 nM): 86.3%
normalised viability ([15]; 10 nM): 100%
normalised viability ([16]; 100 nM): 95.5%
normalised viability ([17]; 100 nM): 83.3%
normalised viability ([18]; 100 nM): 62.1%
drug sensitivity score [19]: 16
drug sensitivity score [20]: 9.62
drug sensitivity score [21]: 7.82
drug sensitivity score [22]: 13.3
drug sensitivity score [23]: 15.1
drug sensitivity score [24]: 20.4
drug sensitivity score [25]: 8.47
drug sensitivity score [26]: 14.9
drug sensitivity score [27]: 12.5

CC(O)(CS(=O)(=O)c1ccc(F)cc1)C(=O)Nc1ccc(C#N)c(C(F)(F)F)c1 (configuration not stated) [Bicalutamide]
normalised viability ([1]; 100 nM): 115%
normalised viability ([2]; 100 nM): 84.5%
normalised viability ([3]; 100 nM): 97.2%
normalised viability ([4]; 10 nM): 109%
normalised viability ([5]; 10 nM): 105%
normalised viability ([6]; 10 nM): 110%
normalised viability ([7]; 10 nM): 103%
normalised viability ([8]; 100 nM): 99.8%
normalised viability ([9]; 100 nM): 83.7%
normalised viability ([10]; 100 nM): 83%
normalised viability ([11]; 10 nM): 121%
normalised viability ([12]; 100 nM): 93.6%
normalised viability ([13]; 100 nM): 105%
normalised viability ([14]; 100 nM): 98.7%
normalised viability ([15]; 10 nM): 101%
normalised viability ([16]; 100 nM): 94.6%
normalised viability ([17]; 100 nM): 87%
normalised viability ([18]; 100 nM): 94.1%
drug sensitivity score [19]: 0
drug sensitivity score [20]: 0
drug sensitivity score [21]: 0
drug sensitivity score [22]: 0
drug sensitivity score [23]: 0
drug sensitivity score [24]: 0
drug sensitivity score [25]: 0
drug sensitivity score [26]: 0
drug sensitivity score [27]: 0

COc1ccc(S(=O)(=O)Nc2cccnc2Nc2ccc(O)cc2)cc1 [ABT-751]
normalised viability ([1]; 100 nM): 112%
normalised viability ([2]; 100 nM): 89%
normalised viability ([3]; 100 nM): 93%
normalised viability ([4]; 10 nM): 90.4%
normalised viability ([5]; 10 nM): 113%
normalised viability ([6]; 10 nM): 88.8%
normalised viability ([7]; 10 nM): 109%
normalised viability ([8]; 100 nM): 87.2%
normalised viability ([9]; 100 nM): 102%
normalised viability ([10]; 100 nM): 92.4%
normalised viability ([11]; 10 nM): 106%
normalised viability ([12]; 100 nM): 88.1%
normalised viability ([13]; 100 nM): 91.4%
normalised viability ([14]; 100 nM): 108%
normalised viability ([15]; 10 nM): 87%
normalised viability ([16]; 100 nM): 101%
normalised viability ([17]; 100 nM): 91%
normalised viability ([18]; 100 nM): 71.6%
drug sensitivity score [19]: 14.5
drug sensitivity score [20]: 9.7
drug sensitivity score [21]: 5.55
drug sensitivity score [22]: 10.4
drug sensitivity score [23]: 17.9
drug sensitivity score [24]: 18.5
drug sensitivity score [25]: 5.29
drug sensitivity score [26]: 5.44
drug sensitivity score [27]: 12
